The nature of data set [1]: pH of GLDA-PolyP combinations. Format: physicochemical. As to conditions: No PolyP. How it is done: While acidic or basic environment in solution breakdown biofilm, it may be harmful for the human tissue at the periodontal pockets. In this experiment we thus measured the pH levels of the GLDA/PolyP combination that were tested in Example 5.
The test system of data set [2] is biofilm made of Streptococcus sanguis, Actinomyces naeslundii, Porphyromonas gingivalis, and Fusobacterium nucleatum. Put plainly: Removal of mature biofilm grown on hydroxyapatite or titanium disks, live/dead staining. Format: cell-based. Conditions: hydroxyapatite discs, GLDA alone at different concentrations. Here is the method: Following assay calibration, biofilm made of Streptococcus sanguis, Actinomyces naeslundii, Porphyromonas gingivalis, and Fusobacterium nucleatum was grown on tooth surfaces (hydroxyapatite (HA) disks) or dental implants surfaces (sandblast acid-etched titanium surfaces, SLA).
The mature biofilms were washed in saline (control) or saline with PolyP (at 8% to 0.2% w/v) for 45 min at 37° C. The biofilm that remained on the disks was stained with live/dead fluorescent stains and analyzed using a florescence microscope. Results are shown as representative microscopic images (FIG. 1), and as a quantification of the florescence intensity in relative florescence units (RFU) (FIGS. 2-3).
In this experiment, the ability of the chelating agent GLDA to clear biofilm, either alone or in combination with PolyP at 0.02% and 0.5%, was tested. As described in Example 4, biofilm was grown and treated with the different solutions, and the residual biofilm was stained and quantified. The results are shown as a quantification of the florescence intensity in relative florescence units (RFU) (FIGS. 4-5).

Regarding “Tetrasodium N,N-bis(carboxymethyl)-L-glutamate [GLDA]”, the pH was 7 in data set [1] (GLDA 0.05%), 9.6 in data set [1] (GLDA 0.3%) and 11.5 in data set [1] (GLDA 1%). Further, the “residual biofilm (fluorescence intensity)” value in data set [2] is recorded as “dose dependent efficacy”.

(Values after patent US20250195567A1, “COMPOSITIONS FOR REMOVING MICROBIAL BIOFILM OR INHIBITING FORMATION THEREOF” (Prudentix Ltd., priority 2022, published 2025).)
